In PubChem BioAssay (NCI):
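How tested: cells in 96-well plates exposed to compound for 48 hours at five concentrations. GI50: concentration for 50% inhibition of growth. The concentration for full growth arrest is given as TGI.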

Columns and labels:
Assay in all cases: DTP human tumour cell line panel, 48 h
786-0 renal = tested on: 786-0 renal
A498 renal = tested on: A498 renal
A549 NSCLC = tested on: A549 NSCLC
ACHN renal = tested on: ACHN renal
BT-549 breast = tested on: BT-549 breast
CAKI-1 renal = tested on: CAKI-1 renal
CCRF-CEM leukemia = tested on: CCRF-CEM leukemia
COLO 205 colon = tested on: COLO 205 colon
DU-145 prostate = tested on: DU-145 prostate
EKVX NSCLC = tested on: EKVX NSCLC
HCC-2998 colon = tested on: HCC-2998 colon
HCT-116 colon = tested on: HCT-116 colon
HCT-15 colon = tested on: HCT-15 colon
HL-60(TB) leukemia = tested on: HL-60(TB) leukemia
HOP-62 NSCLC = tested on: HOP-62 NSCLC
HOP-92 NSCLC = tested on: HOP-92 NSCLC
HS 578T breast = tested on: HS 578T breast
HT29 colon = tested on: HT29 colon
IGROV1 ovarian = tested on: IGROV1 ovarian
K-562 leukemia = tested on: K-562 leukemia
KM12 colon = tested on: KM12 colon
LOX IMVI melanoma = tested on: LOX IMVI melanoma
M14 melanoma = tested on: M14 melanoma
MALME-3M melanoma = tested on: MALME-3M melanoma
MCF7 breast = tested on: MCF7 breast
MDA-MB-231 breast = tested on: MDA-MB-231 breast
MDA-MB-435 = tested on: MDA-MB-435
MOLT-4 leukemia = tested on: MOLT-4 leukemia
NCI-H226 lung = tested on: NCI-H226 lung
NCI-H23 lung = tested on: NCI-H23 lung
NCI-H460 lung = tested on: NCI-H460 lung
NCI-H522 lung = tested on: NCI-H522 lung
NCI/ADR-RES ovarian = tested on: NCI/ADR-RES ovarian
OVCAR-3 ovarian = tested on: OVCAR-3 ovarian
OVCAR-4 ovarian = tested on: OVCAR-4 ovarian
OVCAR-5 ovarian = tested on: OVCAR-5 ovarian
OVCAR-8 ovarian = tested on: OVCAR-8 ovarian
PC-3 prostate = tested on: PC-3 prostate
RPMI-8226 leukemia = tested on: RPMI-8226 leukemia
SF-268 CNS = tested on: SF-268 CNS
SF-539 CNS = tested on: SF-539 CNS
SK-MEL-2 melanoma = tested on: SK-MEL-2 melanoma
SK-MEL-28 melanoma = tested on: SK-MEL-28 melanoma
SK-MEL-5 melanoma = tested on: SK-MEL-5 melanoma
SK-OV-3 ovarian = tested on: SK-OV-3 ovarian
SN12C renal = tested on: SN12C renal
SNB-19 CNS = tested on: SNB-19 CNS
SNB-75 CNS = tested on: SNB-75 CNS
SR leukemia = tested on: SR leukemia
SW-620 colon = tested on: SW-620 colon
TK-10 renal = tested on: TK-10 renal
U251 CNS = tested on: U251 CNS
UACC-257 melanoma = tested on: UACC-257 melanoma
UACC-62 melanoma = tested on: UACC-62 melanoma
UO-31 renal = tested on: UO-31 renal

SMILES: COC(=O)N[C@H]1CCc2c(Cl)c(OC)c(OC)c(OC)c2-c2ccc(SC)c(=O)cc21
- GI50 (786-0 renal): < 10 nM
- TGI (786-0 renal): > 36900 nM
- GI50 (A498 renal): < 10 nM
- TGI (A498 renal): < 10 nM
- GI50 (A549 NSCLC): < 10 nM
- TGI (A549 NSCLC): > 100000 nM
- GI50 (ACHN renal): < 10 nM
- TGI (ACHN renal): 38100 nM
- GI50 (BT-549 breast): < 10 nM
- TGI (BT-549 breast): 1520 nM
- GI50 (CAKI-1 renal): < 20.8 nM
- TGI (CAKI-1 renal): 48300 nM
- GI50 (CCRF-CEM leukemia): < 10 nM
- TGI (CCRF-CEM leukemia): > 82700 nM
- GI50 (COLO 205 colon): < 10 nM
- TGI (COLO 205 colon): 30.3 nM
- GI50 (DU-145 prostate): < 10 nM
- TGI (DU-145 prostate): > 100000 nM
- GI50 (EKVX NSCLC): < 10 nM
- TGI (EKVX NSCLC): 96900 nM
- GI50 (HCC-2998 colon): < 10 nM
- GI50 (HCT-116 colon): < 10 nM
- GI50 (HCT-15 colon): < 10 nM
- TGI (HCT-15 colon): > 43900 nM
- GI50 (HL-60(TB) leukemia): < 10 nM
- TGI (HL-60(TB) leukemia): < 12.7 nM
- GI50 (HOP-62 NSCLC): < 10 nM
- TGI (HOP-62 NSCLC): > 100000 nM
- GI50 (HOP-92 NSCLC): 19.9 nM
- TGI (HOP-92 NSCLC): 18600 nM
- GI50 (HS 578T breast): < 10 nM
- TGI (HS 578T breast): > 100000 nM
- GI50 (HT29 colon): < 10 nM
- TGI (HT29 colon): > 94800 nM
- GI50 (IGROV1 ovarian): < 10 nM
- TGI (IGROV1 ovarian): > 52500 nM
- GI50 (K-562 leukemia): < 10 nM
- TGI (K-562 leukemia): > 43900 nM
- GI50 (KM12 colon): < 10 nM
- TGI (KM12 colon): 18800 nM
- GI50 (LOX IMVI melanoma): < 10 nM
- TGI (LOX IMVI melanoma): 18600 nM
- GI50 (M14 melanoma): < 10 nM
- GI50 (MALME-3M melanoma): < 10 nM
- TGI (MALME-3M melanoma): 30500 nM
- GI50 (MCF7 breast): < 10 nM
- TGI (MCF7 breast): > 37400 nM
- GI50 (MDA-MB-231 breast): < 10 nM
- TGI (MDA-MB-231 breast): 11900 nM
- GI50 (MDA-MB-435): < 10 nM
- TGI (MDA-MB-435): < 10 nM
- GI50 (MOLT-4 leukemia): < 10 nM
- TGI (MOLT-4 leukemia): > 76800 nM
- GI50 (NCI-H226 lung): < 10 nM
- TGI (NCI-H226 lung): 14200 nM
- GI50 (NCI-H23 lung): < 10 nM
- TGI (NCI-H23 lung): 37000 nM
- GI50 (NCI-H460 lung): < 10 nM
- TGI (NCI-H460 lung): 1050 nM
- GI50 (NCI-H522 lung): < 10 nM
- TGI (NCI-H522 lung): 20300 nM
- GI50 (NCI/ADR-RES ovarian): 15.5 nM
- TGI (NCI/ADR-RES ovarian): 509 nM
- GI50 (OVCAR-3 ovarian): < 10 nM
- TGI (OVCAR-3 ovarian): < 10 nM
- GI50 (OVCAR-4 ovarian): 81.3 nM
- TGI (OVCAR-4 ovarian): > 100000 nM
- GI50 (OVCAR-5 ovarian): < 10 nM
- TGI (OVCAR-5 ovarian): > 94800 nM
- GI50 (OVCAR-8 ovarian): < 10 nM
- TGI (OVCAR-8 ovarian): > 100000 nM
- GI50 (PC-3 prostate): < 10 nM
- TGI (PC-3 prostate): > 70300 nM
- GI50 (RPMI-8226 leukemia): < 10 nM
- TGI (RPMI-8226 leukemia): > 42800 nM
- GI50 (SF-268 CNS): < 10 nM
- TGI (SF-268 CNS): > 100000 nM
- GI50 (SF-539 CNS): < 10 nM
- TGI (SF-539 CNS): < 10 nM
- GI50 (SK-MEL-2 melanoma): 5890 nM
- TGI (SK-MEL-2 melanoma): > 70300 nM
- GI50 (SK-MEL-28 melanoma): 8520 nM
- TGI (SK-MEL-28 melanoma): 46000 nM
- GI50 (SK-MEL-5 melanoma): < 10 nM
- TGI (SK-MEL-5 melanoma): < 12.7 nM
- GI50 (SK-OV-3 ovarian): < 10 nM
- TGI (SK-OV-3 ovarian): > 100000 nM
- GI50 (SN12C renal): < 10 nM
- TGI (SN12C renal): > 43900 nM
- GI50 (SNB-19 CNS): < 10 nM
- TGI (SNB-19 CNS): > 100000 nM
- GI50 (SNB-75 CNS): < 10 nM
- TGI (SNB-75 CNS): > 81200 nM
- GI50 (SR leukemia): < 10 nM
- TGI (SR leukemia): > 66600 nM
- GI50 (SW-620 colon): < 10 nM
- TGI (SW-620 colon): > 100000 nM
- GI50 (TK-10 renal): 15800 nM
- TGI (TK-10 renal): > 100000 nM
- GI50 (U251 CNS): < 10 nM
- TGI (U251 CNS): > 40500 nM
- GI50 (UACC-257 melanoma): 24900 nM
- TGI (UACC-257 melanoma): > 100000 nM
- GI50 (UACC-62 melanoma): < 10 nM
- TGI (UACC-62 melanoma): 20100 nM
- GI50 (UO-31 renal): < 21.5 nM
- TGI (UO-31 renal): 51700 nM
